Where two headings read alike, the source gives them in different places.
Key:
786-O = experiment: Cytotoxicity in vitro in the presence and absence of elastase (MTT assay); type: cell-based; conditions: 786-O cells, 72 h incubation
Description: (§1) Cultivation of cells was performed according to standard procedures with the media recommended by the provider. The cells, in a total volume of 100 μL, were seeded in a 96-well plate with a white bottom (#3610). After a 24 h incubation period at 37° C. and 5% CO2, the medium was exchanged by adding 90 μL fresh medium. The treatment started by adding the test compound in 10 μL of culture medium to the cells in triplicates. Concentrations ranging from 10^−5 M to 10^−13 M were chosen. Two identically treated sets of samples were prepared. One set was treated with the test compound alone, whereas to the second set the compound and 10 nM elastase (NE) was added followed by a 72 h incubation period at 37° C. and 5% CO2. The proliferation was detected using the MTT assay (ATCC). At the end of the incubation period the MTT reagent was added to all samples for 4h. Lysis of the cells followed by addition of the detergent was done overnight. The formed dye was detected at 570 nm. The proliferation of untreated but otherwise identically handled cells was defined as the 100% value. The dose response curves allowed the determination of the respective IC50 values. […]

HT29 = experiment: as above; type: cell-based; conditions: HT29 cells, 72 h incubation
Description: as §1

NCI-H292 = experiment: as above; type: cell-based; conditions: NCI-H292 cells, 72 h incubation
Description: as §1

SUM149PT = experiment: as above; type: cell-based; conditions: SUM149PT cells, 72 h incubation
Description: as §1

[1] = Pharmacokinetics in rat after intravenous administration; type: in vivo; conditions: plasma, male rats, intravenous bolus 0.5 mg/kg; for clearance: read-out: CL plasma; for Vd: read-out: VSS
Description: Male rats (n=3) were given an intravenous 0.5 mg/kg bolus dose of test article dissolved in plasma with 1% DMSO and 2% ethanol. Serial blood samples were collected up to 24 hours post-dose. Plasma was harvested from blood samples and stored frozen until sample analysis. Test article plasma concentrations were analyzed by LC/MS/MS. Pharmacokinetic parameters were calculated using non-compartmental analysis.

[2] = compound alone, read-out: IC50 without neutrophil elastase
[3] = with 10 nM elastase (NE), read-out: IC50 with neutrophil elastase

SMILES	IC50 (786-O; [2]) [nM]	IC50 (786-O; [3]) [nM]	IC50 (HT29; [2]) [nM]	IC50 (HT29; [3]) [nM]	IC50 (NCI-H292; [2]) [nM]	IC50 (NCI-H292; [3]) [nM]	IC50 (SUM149PT; [2]) [nM]	IC50 (SUM149PT; [3]) [nM]	AUC [1] [ng·h/mL]	half-life [1] [h]	clearance [1] [mL/min/kg]	Vd [1] [L/kg]
CC(C)[C@H](NC(=O)[C@@H]1CCCN1C(=O)[C@H](CC(=O)O)NC(=O)CCOCCOCCOCCNC(=O)NCCCC[C@H](NC(=O)N[C@@H](CCC(=O)O)C(=O)O)C(=O)O)C(=O)N=S(C)(=O)Cc1cc2nc(c1)OCCCOc1cc(F)ccc1-c1cc(ncc1F)N2 (relative stereo) [Compound 9, tetrasodium 1-[(2S,23S,27S)-23,27,29-tricarboxylato-2-(carboxylatomethyl)-4,17,25-trioxo-7,10,13-trioxa-3,16,18,24,26-pentaazanonacosanan-1-oyl]-L-prolyl-N—[(R*)—{[15,19-difluoro-3,4-dihydro-2H,11H-10,6-(azeno)-12,16-(metheno)-1,5,11,13-benzodioxadiazacyclooctadecin-8-yl]methyl}(methyl)oxo-lambda6-sulfanylidene]-L-valinamide]	100 to 999	1 to 9.9	100 to 999	1 to 9.9	100 to 999	1 to 9.9	100 to 999	1 to 9.9				
CCc1c2c(nc3ccccc13)-c1cc3c(c(=O)n1C2)COC(=O)[C@@]3(CC)OC(=O)[C@@H](NC(=O)[C@@H]1CCCN1C(=O)[C@H](CC(=O)O)NC(=O)CCOCCOCCOCCNC(=O)CCC(=O)Nc1cccc2c(C(=O)NCC(=O)N3CC(F)(F)C[C@H]3C#N)ccnc12)C(C)C [Compound 6, sodium (4S)-4,11-diethyl-3,14-dioxo-3,4,12,14-tetrahydro-1H-pyrano[3′,4′:6,7]indolizino[1,2-b]quinolin-4-yl 1-[(2S)-2-(carboxylatomethyl)-20-{[4-({2-[(2S)-2-cyano-4,4-difluoropyrrolidin-1-yl]-2-oxoethyl}carbamoyl)quinolin-8-yl]amino}-4,17,20-trioxo-7,10,13-trioxa-3,16-diazaicosanan-1-oyl]-L-prolyl-L-valinate]									< 1000	< 0.5	> 5	0.3 to 0.9
CCCNC(=O)Nc1cccc(S(=O)(=O)Nc2cccc([C@@H](CC(=O)O)NC(=O)Nc3ccc(NC(=O)NCCOCCOCCOCCC(=O)NCCCC[C@H](NC(=O)CCOCCOCCOCCNC(=O)Nc4ccc(NC(=O)N[C@H](CC(=O)O)c5cccc(NS(=O)(=O)c6cccc(NC(=O)NCCC)c6)c5)cc4)C(=O)NCCOCCOCCOCCC(=O)N[C@@H](CC(=O)O)C(=O)N4CCC[C@H]4C(=O)N[C@H](C(=O)N[C@@H](CCN(C(=O)CO)[C@@H](c4cc(-c5cc(F)ccc5F)cn4Cc4ccccc4)C(C)(C)C)C(=O)NC)C(C)C)cc3)c2)c1 [Compound 27]									100000 to 500000	10 to 40	0.02 to 0.5	0.01 to 0.1
CCc1c2c(nc3ccccc13)-c1cc3c(c(=O)n1C2)COC(=O)[C@@]3(CC)OC(=O)[C@@H](NC(=O)[C@@H]1CCCN1C(=O)[C@H](CC(=O)[O-])NC(=O)CCOCCOCCOCCNC(=O)[C@H](CCCCNC(=O)CCOCCOCCOCCNC(=O)CCC(=O)Nc1cccc2c(C(=O)NCC(=O)N3CC(F)(F)C[C@H]3C#N)ccnc12)NC(=O)CCOCCOCCOCCNC(=O)CCC(=O)Nc1cccc2c(C(=O)NCC(=O)N3CC(F)(F)C[C@H]3C#N)ccnc12)C(C)C.[Na+] [Compound 20, sodium (4S)-4,11-diethyl-3,14-dioxo-3,4,12,14-tetrahydro-1H-pyrano[3′,4′:6,7]indolizino[1,2-b]quinolin-4-yl 1-[(2S)-15-{[N2,N6-bis(17-{[4-({2-[(2S)-2-cyano-4,4-difluoropyrrolidin-1-yl]-2-oxoethyl}carbamoyl)quinolin-8-yl]amino}-14,17-dioxo-4,7,10-trioxa-13-azaheptadecanan-1-oyl}-L-lysyl]amino)-2-(carboxylatomethyl)-4-oxo-7,10,13-trioxa-3-azapentadecanan-1-oyl]-L-prolyl-L-valinate]	> 1000	1 to 9.9	> 1000	10 to 99	100 to 999	1 to 9.9			1000 to 10000	0.5 to 1	0.5 to 5	0.1 to 0.3
CCc1c2c(nc3ccccc13)-c1cc3c(c(=O)n1C2)COC(=O)[C@@]3(CC)OC(=O)[C@@H](NC(=O)[C@@H]1CCCN1C(=O)[C@H](CC(=O)[O-])NC(=O)CCOCCOCCOCCNC(=O)CCCC(=O)NCCCC[C@H](NC(=O)CCOCCOCCOCCNC(=O)CCC(=O)Nc1cccc2c(C(=O)NCC(=O)N3CC(F)(F)C[C@H]3C#N)ccnc12)C(=O)NCCCCCCCC(=O)[O-])C(C)C.[Na+].[Na+] [Compound 21, disodium (4S)-4,11-diethyl-3,14-dioxo-3,4,12,14-tetrahydro-1H-pyrano[3′,4′:6,7]indolizino[1,2-b]quinolin-4-yl 1-[(2S,27S)-27-[(7-carboxylatoheptyl)carbamoyl]-2-(carboxylatomethyl)-45-{[4-({2-[(2S)-2-cyano-4,4-difluoropyrrolidin-1-yl]-2-oxoethyl}carbamoyl)quinolin-8-yl]amino}-4,17,21,29,42,45-hexaoxo-7,10,13,32,35,38-hexaoxa-3,16,22,28,41-pentaazapentatetracontanan-1-oyl]-L-prolyl-L-valinate]	> 1000	1 to 9.9	> 1000	10 to 99	100 to 999	1 to 9.9			1000 to 10000	0.5 to 1	0.5 to 5	0.1 to 0.3
CCc1c2c(nc3ccccc13)-c1cc3c(c(=O)n1C2)COC(=O)[C@@]3(CC)OC(=O)[C@@H](NC(=O)[C@@H]1CCCN1C(=O)[C@H](CC(=O)O)NC(=O)CCOCCOCCOCCNC(=O)NCCCC[C@H](NC(=O)N[C@@H](CCC(=O)O)C(=O)O)C(=O)O)C(C)C [Compound 5, tetrasodium (4S)-4,11-diethyl-3,14-dioxo-3,4,12,14-tetrahydro-1H-pyrano[3′,4′:6,7]indolizino[1,2-b]quinolin-4-yl 1-[(2S,23S,27S)-23,27,29-tricarboxylato-2-(carboxylatomethyl)-4,17,25-trioxo-7,10,13-trioxa-3,16,18,24,26-pentaazanonacosanan-1-oyl]-L-prolyl-L-valinate]									1000 to 10000	1 to 5	0.5 to 5	0.1 to 0.3
CCCNC(=O)Nc1cccc(S(=O)(=O)Nc2cccc([C@@H](CC(=O)O)NC(=O)Nc3ccc(NC(=O)NCCOCCOCCOCCC(=O)N[C@@H](CC(=O)O)C(=O)N4CCC[C@H]4C(=O)N[C@H](C(=O)NCCCN(C(=O)CO)[C@@H](c4cc(-c5cc(F)ccc5F)cn4Cc4ccccc4)C(C)(C)C)C(C)C)cc3)c2)c1 [Compound 25, disodium 1-[(2S)-2-(carboxylatomethyl)-17-{4-[({(1R)-2-carboxylato-1-[3-({3-[(propylcarbamoyl)amino]benzene-1-sulfonyl}amino)phenyl]ethyl}carbamoyl)amino]anilino}-4,17-dioxo-7,10,13-trioxa-3,16-diazaheptadecanan-1-oyl]-L-prolyl-N-{3-[({1R)-1-[1-benzyl-4-(2,5-difluorophenyl)-1H-pyrrol-2-yl]-2,2-dimethylpropyl}(hydroxyacetyl)amino]propyl}-L-valinamide]			> 1000	1 to 9.9	> 1000	10 to 99	> 1000	1 to 9.9				
CCCNC(=O)Nc1cccc(S(=O)(=O)Nc2cccc([C@@H](CC(=O)O)NC(=O)Nc3ccc(NC(=O)NCCOCCOCCOCCC(=O)NCCCC[C@H](NC(=O)CCOCCOCCOCCNC(=O)Nc4ccc(NC(=O)N[C@H](CC(=O)O)c5cccc(NS(=O)(=O)c6cccc(NC(=O)NCCC)c6)c5)cc4)C(=O)NCCOCCOCCOCCC(=O)N[C@@H](CC(N)=O)C(=O)N4CCC[C@H]4C(=O)N[C@H](C(=O)NCCCN(C(=O)CO)[C@@H](c4cc(-c5cc(F)ccc5F)cn4Cc4ccccc4)C(C)(C)C)C(C)C)cc3)c2)c1 [Compound 18]									100000 to 500000	10 to 40	0.02 to 0.5	0.01 to 0.1

Reference: patent US20260183405A1, “SMALL MOLECULE-DRUG-CONJUGATES CLEAVABLE IN A TUMOR MICROENVIRONMENT” (priority 2022, published 2026)
